# Laboratory results taken from PubChem BioAssay (NCI).
#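 Interpolation was linear, between the two tested concentrations surrounding the appropriate level; five concentrations were tested over 48 hours in 96-well plates. GI50 is the concentration that inhibits growth by half. TGI is the concentration that stops growth completely.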
# Experiments:
# Experiment in all cases: NCI-60 cell line screen, 48 h
# IGROV1 ovarian = tested on: IGROV1 ovarian
# MOLT-4 leukemia = tested on: MOLT-4 leukemia
# U251 CNS = tested on: U251 CNS
# DU-145 prostate = tested on: DU-145 prostate
# OVCAR-5 ovarian = tested on: OVCAR-5 ovarian
# CAKI-1 renal = tested on: CAKI-1 renal
# SK-MEL-28 melanoma = tested on: SK-MEL-28 melanoma
# PC-3 prostate = tested on: PC-3 prostate
# MCF7 breast = tested on: MCF7 breast
# HL-60(TB) leukemia = tested on: HL-60(TB) leukemia
# 786-0 renal = tested on: 786-0 renal
# HOP-62 NSCLC = tested on: HOP-62 NSCLC
# SN12C renal = tested on: SN12C renal
# NCI-H460 lung = tested on: NCI-H460 lung
# NCI/ADR-RES ovarian = tested on: NCI/ADR-RES ovarian
# K-562 leukemia = tested on: K-562 leukemia
# OVCAR-3 ovarian = tested on: OVCAR-3 ovarian
# BT-549 breast = tested on: BT-549 breast
# UACC-257 melanoma = tested on: UACC-257 melanoma
# M14 melanoma = tested on: M14 melanoma
# HCT-116 colon = tested on: HCT-116 colon
# EKVX NSCLC = tested on: EKVX NSCLC
# MALME-3M melanoma = tested on: MALME-3M melanoma
# UO-31 renal = tested on: UO-31 renal
# HOP-92 NSCLC = tested on: HOP-92 NSCLC
# SW-620 colon = tested on: SW-620 colon
# LOX IMVI melanoma = tested on: LOX IMVI melanoma
# SF-295 CNS = tested on: SF-295 CNS
# HT29 colon = tested on: HT29 colon
# COLO 205 colon = tested on: COLO 205 colon
# HCC-2998 colon = tested on: HCC-2998 colon
# MDA-MB-435 = tested on: MDA-MB-435
# A549 NSCLC = tested on: A549 NSCLC
# SF-268 CNS = tested on: SF-268 CNS
# UACC-62 melanoma = tested on: UACC-62 melanoma
# NCI-H522 lung = tested on: NCI-H522 lung
# OVCAR-4 ovarian = tested on: OVCAR-4 ovarian
# NCI-H23 lung = tested on: NCI-H23 lung
# RXF 393 renal = tested on: RXF 393 renal
# SK-MEL-5 melanoma = tested on: SK-MEL-5 melanoma
# CCRF-CEM leukemia = tested on: CCRF-CEM leukemia
# A498 renal = tested on: A498 renal
# MDA-N = tested on: MDA-N
# RPMI-8226 leukemia = tested on: RPMI-8226 leukemia
# HCT-15 colon = tested on: HCT-15 colon
# ACHN renal = tested on: ACHN renal
# KM12 colon = tested on: KM12 colon
# HS 578T breast = tested on: HS 578T breast
# SNB-75 CNS = tested on: SNB-75 CNS
# T-47D breast = tested on: T-47D breast
# NCI-H226 lung = tested on: NCI-H226 lung
# SR leukemia = tested on: SR leukemia
# OVCAR-8 ovarian = tested on: OVCAR-8 ovarian
# SF-539 CNS = tested on: SF-539 CNS
# SK-MEL-2 melanoma = tested on: SK-MEL-2 melanoma
# MDA-MB-231 breast = tested on: MDA-MB-231 breast
# TK-10 renal = tested on: TK-10 renal
# SK-OV-3 ovarian = tested on: SK-OV-3 ovarian
# SNB-19 CNS = tested on: SNB-19 CNS
structure (smiles),measurement,setting,value
Cc1ccccc1Nc1cn(CCOc2ccccc2)c(=O)n(CCOc2ccccc2)c1=O,TGI,IGROV1 ovarian,> 100 µM
same,TGI,MOLT-4 leukemia,> 100 µM
same,TGI,U251 CNS,> 100 µM
same,TGI,DU-145 prostate,> 100 µM
same,TGI,OVCAR-5 ovarian,> 100 µM
same,TGI,CAKI-1 renal,> 100 µM
same,TGI,SK-MEL-28 melanoma,> 100 µM
same,TGI,PC-3 prostate,> 100 µM
same,TGI,MCF7 breast,> 100 µM
same,TGI,HL-60(TB) leukemia,> 100 µM
same,TGI,786-0 renal,> 100 µM
same,TGI,HOP-62 NSCLC,> 100 µM
same,TGI,SN12C renal,> 100 µM
same,TGI,NCI-H460 lung,> 100 µM
same,TGI,NCI/ADR-RES ovarian,> 100 µM
same,TGI,K-562 leukemia,> 100 µM
same,TGI,OVCAR-3 ovarian,> 100 µM
same,TGI,BT-549 breast,> 100 µM
same,TGI,UACC-257 melanoma,> 100 µM
same,TGI,M14 melanoma,> 100 µM
same,TGI,HCT-116 colon,> 100 µM
same,TGI,EKVX NSCLC,> 100 µM
same,TGI,MALME-3M melanoma,63.7 µM
same,TGI,UO-31 renal,> 100 µM
same,TGI,HOP-92 NSCLC,> 100 µM
same,TGI,SW-620 colon,> 100 µM
same,TGI,LOX IMVI melanoma,> 100 µM
same,TGI,SF-295 CNS,> 100 µM
same,TGI,HT29 colon,> 100 µM
same,TGI,COLO 205 colon,> 100 µM
same,TGI,HCC-2998 colon,> 100 µM
same,TGI,MDA-MB-435,> 100 µM
same,TGI,A549 NSCLC,> 100 µM
same,TGI,SF-268 CNS,> 100 µM
same,TGI,UACC-62 melanoma,> 100 µM
same,TGI,NCI-H522 lung,> 100 µM
same,TGI,OVCAR-4 ovarian,> 100 µM
same,TGI,NCI-H23 lung,> 100 µM
same,TGI,RXF 393 renal,> 100 µM
same,TGI,SK-MEL-5 melanoma,> 100 µM
same,TGI,CCRF-CEM leukemia,> 100 µM
same,TGI,A498 renal,> 100 µM
same,TGI,MDA-N,> 100 µM
same,TGI,RPMI-8226 leukemia,> 100 µM
same,TGI,HCT-15 colon,> 100 µM
same,TGI,ACHN renal,> 100 µM
same,TGI,KM12 colon,> 100 µM
same,TGI,HS 578T breast,> 100 µM
Clc1ccc(N=Cc2cc3cc(Br)ccc3nc2Cl)cc1,TGI,IGROV1 ovarian,> 50 µM
same,TGI,MOLT-4 leukemia,> 50 µM
same,TGI,DU-145 prostate,> 50 µM
same,TGI,OVCAR-5 ovarian,> 50 µM
same,TGI,CAKI-1 renal,> 50 µM
same,TGI,SK-MEL-28 melanoma,> 50 µM
same,TGI,SNB-75 CNS,> 50 µM
same,TGI,PC-3 prostate,> 50 µM
same,TGI,HL-60(TB) leukemia,46.4 µM
same,TGI,786-0 renal,> 50 µM
same,TGI,SN12C renal,> 50 µM
same,TGI,NCI-H460 lung,> 50 µM
same,TGI,NCI/ADR-RES ovarian,> 50 µM
same,TGI,K-562 leukemia,> 50 µM
same,TGI,BT-549 breast,> 50 µM
same,TGI,T-47D breast,> 50 µM
same,TGI,NCI-H226 lung,> 50 µM
same,TGI,UACC-257 melanoma,> 50 µM
same,TGI,M14 melanoma,> 50 µM
same,TGI,HCT-116 colon,> 50 µM
same,TGI,EKVX NSCLC,> 50 µM
same,TGI,MALME-3M melanoma,> 50 µM
same,TGI,UO-31 renal,> 50 µM
same,TGI,SR leukemia,42.2 µM
same,TGI,HOP-92 NSCLC,> 50 µM
same,TGI,SW-620 colon,> 50 µM
same,TGI,LOX IMVI melanoma,> 50 µM
same,TGI,HT29 colon,> 50 µM
same,TGI,COLO 205 colon,> 50 µM
same,TGI,HCC-2998 colon,> 50 µM
same,TGI,MDA-MB-435,> 50 µM
same,TGI,OVCAR-8 ovarian,> 50 µM
same,TGI,SF-268 CNS,> 50 µM
same,TGI,NCI-H522 lung,> 50 µM
same,TGI,OVCAR-4 ovarian,24.2 µM
same,TGI,NCI-H23 lung,> 50 µM
same,TGI,SF-539 CNS,> 50 µM
same,TGI,RXF 393 renal,> 50 µM
same,TGI,SK-MEL-5 melanoma,45.2 µM
same,TGI,CCRF-CEM leukemia,32.5 µM
same,TGI,SK-MEL-2 melanoma,48.3 µM
same,TGI,MDA-N,> 50 µM
same,TGI,RPMI-8226 leukemia,38.4 µM
same,TGI,HCT-15 colon,> 50 µM
same,TGI,KM12 colon,> 50 µM
C(#Cc1ccccc1C#Cc1ccccn1)c1ccc(OCCCCCCOc2ccc(C#Cc3ccccc3C#Cc3ccccn3)cc2)cc1,GI50,IGROV1 ovarian,5.63 µM
same,TGI,IGROV1 ovarian,17.2 µM
same,GI50,MOLT-4 leukemia,0.225 µM
same,TGI,MOLT-4 leukemia,5.41 µM
same,GI50,MDA-MB-231 breast,2.47 µM
same,TGI,MDA-MB-231 breast,9.64 µM
same,GI50,U251 CNS,4.55 µM
same,TGI,U251 CNS,10.9 µM
same,GI50,DU-145 prostate,6.36 µM
same,TGI,DU-145 prostate,13 µM
same,GI50,OVCAR-5 ovarian,5.93 µM
same,TGI,OVCAR-5 ovarian,13.8 µM
same,GI50,CAKI-1 renal,5.05 µM
same,TGI,CAKI-1 renal,12 µM
same,GI50,SK-MEL-28 melanoma,6.18 µM
same,TGI,SK-MEL-28 melanoma,12.4 µM
same,GI50,SNB-75 CNS,5.26 µM
same,TGI,SNB-75 CNS,13.8 µM
same,GI50,PC-3 prostate,5.18 µM
same,TGI,PC-3 prostate,14 µM
same,GI50,MCF7 breast,1.62 µM
same,TGI,MCF7 breast,8.29 µM
same,GI50,HL-60(TB) leukemia,0.108 µM
same,TGI,HL-60(TB) leukemia,1.44 µM
same,GI50,786-0 renal,5.55 µM
same,TGI,786-0 renal,28.8 µM
same,GI50,HOP-62 NSCLC,6.51 µM
same,TGI,HOP-62 NSCLC,14.6 µM
same,GI50,SN12C renal,2.35 µM
same,TGI,SN12C renal,11.6 µM
same,GI50,NCI-H460 lung,1.62 µM
same,TGI,NCI-H460 lung,6.65 µM
same,GI50,NCI/ADR-RES ovarian,2.43 µM
same,TGI,NCI/ADR-RES ovarian,18.3 µM
same,GI50,K-562 leukemia,1.81 µM
same,TGI,K-562 leukemia,18.5 µM
same,GI50,OVCAR-3 ovarian,2.31 µM
same,TGI,OVCAR-3 ovarian,9.16 µM
same,GI50,BT-549 breast,4.39 µM
same,TGI,BT-549 breast,12.1 µM
same,GI50,T-47D breast,1.52 µM
same,TGI,T-47D breast,14.1 µM
same,GI50,NCI-H226 lung,4.33 µM
same,TGI,NCI-H226 lung,13.3 µM
same,GI50,UACC-257 melanoma,5.92 µM
same,TGI,UACC-257 melanoma,12.7 µM
same,GI50,M14 melanoma,7.47 µM
same,TGI,M14 melanoma,17.6 µM
same,GI50,HCT-116 colon,6.83 µM
same,TGI,HCT-116 colon,15.9 µM
same,GI50,EKVX NSCLC,5.09 µM
same,TGI,EKVX NSCLC,22.9 µM
same,GI50,MALME-3M melanoma,7.76 µM
same,TGI,MALME-3M melanoma,16.3 µM
same,GI50,UO-31 renal,2.02 µM
same,TGI,UO-31 renal,21.4 µM
same,GI50,SR leukemia,2.45 µM
same,TGI,SR leukemia,19.4 µM
same,GI50,HOP-92 NSCLC,4.91 µM
same,TGI,HOP-92 NSCLC,12 µM
same,GI50,SW-620 colon,4.51 µM
same,TGI,SW-620 colon,10.6 µM
same,GI50,LOX IMVI melanoma,0.229 µM
same,TGI,LOX IMVI melanoma,5.71 µM
same,GI50,SF-295 CNS,1.32 µM
same,TGI,SF-295 CNS,5.08 µM
same,GI50,HT29 colon,8.16 µM
same,TGI,HT29 colon,14.9 µM
same,GI50,COLO 205 colon,8.35 µM
same,TGI,COLO 205 colon,15.6 µM
same,GI50,HCC-2998 colon,6.83 µM
same,TGI,HCC-2998 colon,13.3 µM
same,GI50,TK-10 renal,5.33 µM
same,TGI,TK-10 renal,15.8 µM
same,GI50,MDA-MB-435,1.69 µM
same,TGI,MDA-MB-435,9.71 µM
same,GI50,OVCAR-8 ovarian,4.16 µM
same,TGI,OVCAR-8 ovarian,14.6 µM
same,GI50,A549 NSCLC,5.72 µM
same,TGI,A549 NSCLC,13.8 µM
same,GI50,SF-268 CNS,2.52 µM
same,TGI,SF-268 CNS,10.8 µM
same,GI50,UACC-62 melanoma,0.35 µM
same,TGI,UACC-62 melanoma,5.46 µM
same,GI50,NCI-H522 lung,2.55 µM
same,TGI,NCI-H522 lung,13.1 µM
same,GI50,OVCAR-4 ovarian,2.7 µM
same,TGI,OVCAR-4 ovarian,11.5 µM
same,GI50,NCI-H23 lung,6.45 µM
same,TGI,NCI-H23 lung,16.2 µM
same,GI50,SF-539 CNS,1.76 µM
same,TGI,SF-539 CNS,7.63 µM
same,GI50,RXF 393 renal,6.91 µM
same,TGI,RXF 393 renal,13.6 µM
same,GI50,SK-OV-3 ovarian,7.87 µM
same,TGI,SK-OV-3 ovarian,20.1 µM
same,GI50,SK-MEL-5 melanoma,1.73 µM
same,TGI,SK-MEL-5 melanoma,7.26 µM
same,GI50,CCRF-CEM leukemia,0.0276 µM
same,TGI,CCRF-CEM leukemia,0.151 µM
same,GI50,SK-MEL-2 melanoma,1.87 µM
same,TGI,SK-MEL-2 melanoma,11.1 µM
same,GI50,A498 renal,5.93 µM
same,TGI,A498 renal,12.1 µM
same,GI50,RPMI-8226 leukemia,0.387 µM
same,TGI,RPMI-8226 leukemia,10.1 µM
same,GI50,HCT-15 colon,1.76 µM
same,TGI,HCT-15 colon,9.37 µM
same,GI50,SNB-19 CNS,4.39 µM
same,TGI,SNB-19 CNS,11.4 µM
same,GI50,ACHN renal,1.2 µM
same,TGI,ACHN renal,7.95 µM
same,GI50,KM12 colon,1.65 µM
same,TGI,KM12 colon,8.34 µM
same,GI50,HS 578T breast,5.79 µM
same,TGI,HS 578T breast,15.7 µM
